Patent US9056874B2, “Complement pathway modulators and uses thereof” (NOVARTIS AG, priority 2012, dated 2015)

target: factor B (Homo sapiens, UniProt P00751); assay: factor B inhibition assay of Biological Example 1; format: biochemical; set-up: CVF-Bb complex prepared from purified cobra venom factor (1 μM), recombinant human complement factor B; made in house; host or cells: drosophila cells (factor B); E. coli (factor D used to form the complex); details: IC50 (nM), assay of Biological Example 1 (Table 1)
Sequence (P00751 260-764 limits assumed): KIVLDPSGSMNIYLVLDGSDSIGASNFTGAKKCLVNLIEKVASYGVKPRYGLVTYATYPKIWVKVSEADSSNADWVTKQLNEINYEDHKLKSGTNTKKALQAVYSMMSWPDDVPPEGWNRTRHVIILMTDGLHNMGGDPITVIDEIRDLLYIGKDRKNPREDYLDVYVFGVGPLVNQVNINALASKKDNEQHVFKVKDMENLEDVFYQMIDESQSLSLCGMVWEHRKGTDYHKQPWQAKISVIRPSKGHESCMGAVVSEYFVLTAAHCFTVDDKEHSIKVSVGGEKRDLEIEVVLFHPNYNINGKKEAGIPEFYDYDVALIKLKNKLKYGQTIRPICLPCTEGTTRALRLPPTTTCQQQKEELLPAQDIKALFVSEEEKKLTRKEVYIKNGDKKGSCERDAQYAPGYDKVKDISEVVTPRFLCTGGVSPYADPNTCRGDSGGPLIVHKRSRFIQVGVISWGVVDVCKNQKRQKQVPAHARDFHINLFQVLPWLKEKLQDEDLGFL
Sequence (Q91132 23-649 partner limits assumed): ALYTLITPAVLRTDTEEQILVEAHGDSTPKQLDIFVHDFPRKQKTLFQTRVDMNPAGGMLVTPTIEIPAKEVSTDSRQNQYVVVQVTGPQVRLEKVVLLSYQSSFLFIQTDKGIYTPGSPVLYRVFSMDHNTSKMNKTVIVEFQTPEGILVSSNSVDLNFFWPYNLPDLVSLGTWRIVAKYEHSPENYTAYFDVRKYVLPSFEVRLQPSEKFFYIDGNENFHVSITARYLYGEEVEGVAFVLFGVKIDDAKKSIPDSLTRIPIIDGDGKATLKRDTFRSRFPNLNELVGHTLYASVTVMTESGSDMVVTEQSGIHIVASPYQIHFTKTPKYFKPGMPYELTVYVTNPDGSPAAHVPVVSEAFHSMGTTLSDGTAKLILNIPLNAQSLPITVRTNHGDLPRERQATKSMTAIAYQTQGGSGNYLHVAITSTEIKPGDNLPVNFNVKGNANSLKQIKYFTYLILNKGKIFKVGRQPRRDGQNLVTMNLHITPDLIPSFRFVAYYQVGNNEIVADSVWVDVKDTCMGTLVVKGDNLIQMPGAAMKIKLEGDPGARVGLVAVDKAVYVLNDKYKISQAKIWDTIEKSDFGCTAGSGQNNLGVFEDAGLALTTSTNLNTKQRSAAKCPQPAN
Sequence (Q91132 733-984 partner limits assumed): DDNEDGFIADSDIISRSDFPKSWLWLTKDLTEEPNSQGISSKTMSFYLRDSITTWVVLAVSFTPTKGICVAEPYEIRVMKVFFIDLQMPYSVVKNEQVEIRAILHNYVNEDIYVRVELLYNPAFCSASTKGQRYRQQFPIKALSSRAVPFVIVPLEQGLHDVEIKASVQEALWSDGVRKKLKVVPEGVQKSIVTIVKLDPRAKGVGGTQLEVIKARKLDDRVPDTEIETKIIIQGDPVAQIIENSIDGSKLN
Sequence (Q91132 1264-1642 partner limits assumed): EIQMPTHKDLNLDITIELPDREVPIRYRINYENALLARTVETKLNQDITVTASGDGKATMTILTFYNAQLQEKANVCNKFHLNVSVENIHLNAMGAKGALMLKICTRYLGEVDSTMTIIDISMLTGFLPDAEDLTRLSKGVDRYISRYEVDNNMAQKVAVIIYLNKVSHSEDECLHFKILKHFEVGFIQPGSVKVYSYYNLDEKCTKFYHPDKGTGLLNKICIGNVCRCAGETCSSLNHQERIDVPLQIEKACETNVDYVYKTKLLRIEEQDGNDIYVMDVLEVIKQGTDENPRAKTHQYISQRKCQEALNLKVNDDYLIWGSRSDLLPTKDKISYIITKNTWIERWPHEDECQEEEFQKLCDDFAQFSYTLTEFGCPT

SMILES	IC50 [nM]
COc1cc(C)c2c(c1C(C)(OC)c1nc3cc(C#N)ccc3[nH]1)CCN2 (single isomer, unassigned; (-)) [124 b) (−), (−)-2-(1-methoxy-1-(5-methoxy-7-methylindolin-4-yl)ethyl)-1H-benzo[d]imidazole-5-carbonitrile]	11
COc1cc(C)c2[nH]ccc2c1C(O)c1nc2cc(C#N)ccc2o1 (single isomer, unassigned; (-)) [125-B b) (−), (−)-2-(hydroxy(5-methoxy-7-methyl-1H-indol-4-yl)methyl)benzo[d]oxazole-5-carbonitrile]	3
COc1cc(C)c2[nH]ccc2c1C(O)(c1nc2cc(C#N)ccc2o1)C(F)(F)F (single isomer, unassigned; (-)) [128-B b) (−), (−)-2-(2,2,2-trifluoro-1-hydroxy-1-(5-methoxy-7-methyl-1H-indol-4-yl)ethyl)benzo[d]oxazole-5-carbonitrile]	3
COc1cc(C)c2[nH]ccc2c1C(C)(N)c1nc2cc(C#N)ccc2o1 (single isomer, unassigned; (-)) [131-B b) (−), (−)-2-(1-amino-1-(5-methoxy-7-methyl-1H-indol-4-yl)ethyl)benzo[d]oxazole-5-carbonitrile]	52
CCc1cc(C)c2[nH]cc(C#N)c2c1C(OC)c1nc2cc(C#N)ccc2[nH]1 (single isomer, unassigned; (-)) [Example 91, (−)-2-((3-Cyano-5-ethyl-7-methyl-1H-indol-4-yl)(methoxy)methyl)-1H-benzo[d]imidazole-5-carbonitrile]	420
Cc1cc(C)c2[nH]ccc2c1C(O)(c1nc2cc(C#N)ccc2[nH]1)C1CC1 (centres unmarked) [79-H a)]	110
Cc1cc(C(C)C)c(C(C)(N)c2nc3cc(C#N)ccc3[nH]2)c2cc[nH]c12 (centres unmarked) [102-E a)]	60
COc1cc(C)c2[nH]ccc2c1Cc1nc2cc(C#N)ccc2[nH]1 [Example 20-C, 2-((5-Methoxy-7-methyl-1H-indol-4-yl)methyl)-1H-benzo[d]imidazole-5-carbonitrile]	60
[2H]C([2H])([2H])Oc1cc(C)c2[nH]ccc2c1Cc1nc2cc(C#N)ccc2[nH]1 [Example 20-D]	80
Cc1cc(OC(C)C)c(Cc2nc3cc(C#N)ccc3[nH]2)c2cc[nH]c12 [Example 20-E]	670
COCCOc1cc(C)c2[nH]ccc2c1Cc1nc2cc(C#N)ccc2[nH]1 [Example 20-F]	5570
COc1cc(C)c2[nH]ccc2c1Cc1nc2cc(C#N)ccc2o1 [Example 20-G]	120
COc1cc(C)c2[nH]ccc2c1Cc1nc2ccc(C#N)cc2o1 [Example 20-H]	4370
COc1cc(F)c2[nH]ccc2c1Cc1nc2cc(C#N)ccc2[nH]1 [Example 21-B, 2-((7-Fluoro-5-methoxy-1H-indol-4-yl)methyl)-1H-benzo[d]imidazole-5-carbonitrile]	3140
[2H]C([2H])([2H])Oc1cc(Cl)c2[nH]ccc2c1Cc1nc2cc(C#N)ccc2[nH]1 [Example 22, 2-((7-Chloro-5-(^2H3)methoxy-1H-indol-4-yl)methyl)-1H-benzo[d]imidazole-5-carbonitrile]	1140
[2H]C([2H])([2H])Oc1cc(Cl)c2[nH]ccc2c1C(O)c1nc2cc(C#N)ccc2[nH]1 (centres unmarked) [Example 24-E]	1110
COc1cc(C)c2[nH]ccc2c1C(=O)c1nc2cc(C#N)ccc2[nH]1 [Example 25-B, 2-(5-Methoxy-7-methyl-1H-indole-4-carbonyl)-1H-benzo[d]imidazole-5-carbonitrile]	810
COC(C)(c1nc2cc(C#N)ccc2[nH]1)c1c(OC(C)C)cc(C)c2[nH]ccc12 (centres unmarked) [Example 27-C]	90
COc1cc(C)c2[nH]ccc2c1C(OC)(c1nc2cc(C#N)ccc2[nH]1)C1CC1 (centres unmarked) [Example 27-D]	20
Cc1cc(OC(C)C)c(C(O)(c2nc3cc(C#N)ccc3[nH]2)C(F)(F)F)c2cc[nH]c12 (centres unmarked) [Example 33-D]	310
Cc1cc(C)c2[nH]ccc2c1Cc1nc2cc(C#N)ccc2[nH]1 [Example 58-C, 2-((5,7-Dimethyl-1H-indol-4-yl)methyl)-1H-benzo[d]imidazole-5-carbonitrile]	200

SMILES	IC50 [nM]
Cc1cc(CO)c(Cc2nc3cc(C#N)ccc3[nH]2)c2cc[nH]c12 [Example 59-C, 2-((5-(Hydroxymethyl)-7-methyl-1H-indol-4-yl)methyl)-1H-benzo[d]imidazole-5-carbonitrile]	1760
Cc1cc(CN)c(Cc2nc3cc(C#N)ccc3[nH]2)c2cc[nH]c12 [Example 60-B, 2-((5-(Aminomethyl)-7-methyl-1H-indol-4-yl)methyl)-1H-benzo[d]imidazole-5-carbonitrile]	5780
CC(=O)NCc1cc(C)c2[nH]ccc2c1Cc1nc2cc(C#N)ccc2[nH]1 [Example 61, N-((4-((5-cyano-1H-benzo[d]imidazol-2-yl)methyl)-7-methyl-1H-indol-5-yl)methyl)acetamide]	6620
Cc1cc(C)c2[nH]ccc2c1Cc1nc2cc(C#N)cc(F)c2[nH]1 [Example 62-B, 2-((5,7-Dimethyl-1H-indol-4-yl)methyl)-7-fluoro-1H-benzo[d]imidazole-5-carbonitrile]	7610
CCc1cc(C)c2[nH]ccc2c1Cc1nc2cc(C#N)ccc2[nH]1 [Example 63-A]	160
Cc1cc(Cl)c(Cc2nc3cc(C#N)ccc3[nH]2)c2cc[nH]c12 [Example 63-B]	260
C=Cc1cc(C)c2[nH]ccc2c1Cc1nc2cc(C#N)ccc2[nH]1 [Example 63-C]	90
COCc1cc(C)c2[nH]ccc2c1Cc1nc2cc(C#N)ccc2[nH]1 [Example 63-D]	1100
Cc1cc(C)c2[nH]ccc2c1Cc1nc2c(C)c(C#N)ccc2[nH]1 [Example 63-E]	320
Cc1cc(C)c2[nH]ccc2c1Cc1nc2cc(C#N)cc(C)c2[nH]1 [Example 63-F]	> 100000
Cc1cc(C)c2[nH]ccc2c1Cc1nc2cc(C#N)c(F)cc2[nH]1 [Example 63-G]	5550
Cc1cc(C)c2[nH]ccc2c1Cc1nc2cc(C#N)c(Cl)cc2[nH]1 [Example 63-I]	72600
COc1cc2[nH]c(Cc3c(C)cc(C)c4[nH]ccc34)nc2cc1C#N [Example 63-J]	83200
Cc1cc(C2CC2)c(C(O)c2nc3cc(C#N)ccc3[nH]2)c2cc[nH]c12 (centres unmarked) [Example 67-B]	260
Cc1cc(Br)c(C(O)c2nc3cc(C#N)ccc3[nH]2)c2cc[nH]c12 (centres unmarked) [Example 67-F]	2000
Cc1cc(C2CC2)c(C(O)c2nc3cc(C#N)c(F)cc3[nH]2)c2cc[nH]c12 (centres unmarked) [Example 67-H]	1930
CCc1cc(C)c2[nH]ccc2c1C(=O)c1nc2cc(C#N)ccc2[nH]1 [Example 78, 2-(5-Ethyl-7-methyl-1H-indole-4-carbonyl)-1H-benzo[d]imidazole-5-carbonitrile]	640
CCC(O)(c1nc2cc(C#N)ccc2[nH]1)c1c(C)cc(C)c2[nH]ccc12 (centres unmarked) [Example 79-G]	190
Cc1cc(C)c2[nH]ccc2c1C(O)(c1ccccc1)c1nc2cc(C#N)ccc2[nH]1 (centres unmarked) [Example 79-I]	660
Cc1cc(C)c2[nH]cc(Br)c2c1Cc1nc2cc(C#N)ccc2[nH]1 [Example 85, 2-((3-bromo-5,7-dimethyl-1H-indol-4-yl)methyl)-1H-benzo[d]imidazole-5-carbonitrile]	220
